“And” between values parts separate entries of the source, which are not always exact repeats. Equal entries are not always repeated.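 Compound exposure: 48 hours, 5 concentrations, 96-well plates. Here, GI50 denotes the concentration required for 50% inhibition of growth. TGI marks complete inhibition of growth.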
What was measured:
Experiment in all cases: NCI tumour cell line growth inhibition, 48 h
[1] = tested on: KM20L2 colon
[2] = tested on: DMS 273 small cell lung
[3] = tested on: M19-MEL melanoma
[4] = tested on: LXFL 529 NSCLC
[5] = tested on: HOP-18 NSCLC
[6] = tested on: XF 498 CNS
[7] = tested on: SNB-78 CNS
[8] = tested on: MDA-N
[9] = tested on: RXF-631 renal
[10] = tested on: P388/ADR leukemia
[11] = tested on: P388 leukemia

## CNC(=O)OCc1cc2ccncc2c2c1[nH]c1ccccc12
[1]
  TGI: > 100 µM
[2]
  TGI: > 100 µM
[3]
  TGI: > 100 µM
[4]
  TGI: > 100 µM
[5]
  TGI: > 100 µM
[6]
  TGI: 97.9 µM
[7]
  TGI: > 100 µM

## CC1OC(n2cc(I)c(=O)[nH]c2=O)C=CC1=O (stereo not given)
[1]
  TGI: 31 µM
[2]
  TGI: 31.3 µM
[3]
  TGI: 30.6 µM
[4]
  TGI: 22.7 µM
[5]
  TGI: 30.3 µM
[6]
  TGI: 33.3 µM
[7]
  TGI: 31.9 µM

## COc1ccc(CCN2COc3ccc4ccc(=O)oc4c3C2)cc1OC
[8]
  TGI: > 100 µM

## O=C(O)C1CCCCC1C(=O)Nc1nc2ccccc2[nH]1 (stereo not given)
[8]
  TGI: > 100 µM

## COc1cc2c3c(c1OCc1ccccc1)NCCC3NCC2 (stereo not given)
[1]
  TGI: > 100 µM
[2]
  TGI: > 100 µM
[3]
  TGI: > 100 µM
[4]
  TGI: > 100 µM
[6]
  TGI: > 100 µM
[9]
  TGI: > 100 µM
[7]
  TGI: > 100 µM

## NC(=O)OCC(COc1ccc(Cl)cc1)OC(=O)c1cc([N+](=O)[O-])cc([N+](=O)[O-])c1 (stereo not given)
[1]
  TGI: > 100 µM
[2]
  TGI: > 100 µM
[4]
  TGI: > 100 µM
[5]
  TGI: > 100 µM
[6]
  TGI: > 100 µM
[9]
  TGI: > 100 µM
[7]
  TGI: > 100 µM

## O=C(NCc1cccs1)OC1CC2CCC1C2 (stereo not given)
[8]
  TGI: > 100 µM

## COc1ccc(OC)c(-c2cc(C(=O)O)c3cc4ccccc4cc3n2)c1
[8]
  TGI: > 100 µM

## [O]=[W](=[O])([OH])[OH]
[8]
  GI50: > 100 µM
  TGI: > 100 µM

## O=[N+]([O-])c1cc([N+](=O)[O-])c(C(Cl)C(Cl)c2ccccc2)cc1C(Cl)C(Cl)c1ccccc1 (stereo not given)
[1]
  TGI: 4.22 µM
[2]
  TGI: 4.08 µM
[3]
  TGI: 3.62 µM
[4]
  TGI: 2.87 µM
[5]
  TGI: 3.53 µM
[6]
  TGI: 3.55 µM
[9]
  TGI: > 21.1 µM
[7]
  TGI: 9.72 µM

## Cc1cc2c(=O)c3ccccc3oc2c(C#N)c1C
[8]
  TGI: > 100 µM

## CN1CCN(CCCN2c3ccccc3Sc3ccc(C(F)(F)F)cc32)CC1
[1]
  TGI: 5.22 µM
[2]
  TGI: 19.8 µM
[3]
  TGI: 3.75 µM
[4]
  TGI: 23 µM
[5]
  TGI: 21.5 µM
[8]
  TGI: 12.5 µM and 12.3 µM
[7]
  TGI: 32.1 µM

## CCOC(=O)NN(C(=O)OCC)C(C(=O)c1ccc(Cl)cc1)=C1NCCN1
[1]
  TGI: > 100 µM
[2]
  TGI: > 100 µM
[3]
  TGI: > 100 µM
[4]
  TGI: > 100 µM
[5]
  TGI: > 100 µM
[6]
  TGI: > 100 µM
[7]
  TGI: > 100 µM

## O=C(NCCCCCCNC(=O)NC1OCC(O)C(O)C1O)NC1OCC(O)C(O)C1O (stereo not given)
[3]
  TGI: > 100 µM
[4]
  TGI: > 100 µM
[7]
  TGI: > 100 µM

## CO[C@]12CCC(=O)N1C=Cc1c2[nH]c2ccccc12
[3]
  TGI: > 100 µM
[4]
  TGI: > 100 µM
[5]
  TGI: > 100 µM
[7]
  TGI: > 100 µM

## NCC(=O)NC(CO)C(=O)O (stereo not given)
[8]
  TGI: > 100 µM

## CC(C)N(C(=O)C12C3C4C5C3C1(C#N)C5C42)C(C)C (stereo not given)
[1]
  TGI: > 100 µM
[2]
  TGI: > 100 µM
[3]
  TGI: > 100 µM
[4]
  TGI: > 100 µM
[5]
  TGI: > 100 µM
[6]
  TGI: > 100 µM
[7]
  TGI: > 100 µM

## C/C=C1\C[C@@H]2C(OC)Nc3cc(O)c(OC)cc3C(=O)N2C1 (stereo not given in full)
[1]
  TGI: 0.0909 µM and 0.045 µM
[2]
  TGI: 0.0917 µM and < 0.0143 µM
[3]
  TGI: 0.0413 µM and 0.0101 µM
[4]
  TGI: 0.209 µM
[8]
  GI50: 0.014 µM
  TGI: 0.0319 µM and < 0.0163 µM
[6]
  GI50: 0.00191 µM
  TGI: 0.00398 µM
[10]
  TGI: 0.0104 µM
[11]
  TGI: < 0.0123 µM

## Cc1ccc2nc(CC(=O)c3ccc4ccccc4c3)c(=O)[nH]c2c1
[8]
  TGI: > 100 µM

## N#CC(C(=O)C(=O)Nc1ccc(Cl)c(Cl)c1)c1ccc(Cl)cc1 (stereo not given)
[1]
  TGI: > 100 µM
[2]
  TGI: > 100 µM
[4]
  TGI: > 100 µM
[5]
  TGI: > 100 µM
[6]
  TGI: > 100 µM
[7]
  TGI: > 100 µM

## CC(=O)OCc1c(C)c2ccccc2n1C(C)=O
[1]
  TGI: > 100 µM
[2]
  TGI: 59.9 µM
[3]
  TGI: > 100 µM
[5]
  TGI: > 100 µM
[6]
  TGI: 84.6 µM
[9]
  TGI: 66.9 µM

— PubChem BioAssay (NCI)
